Columns and labels:
ACE = ACE (Homo sapiens, UniProt P12821); assay: ACE inhibitory activity of IPP per unit weight relative to VPP; format: biochemical
[1] = tested on: spontaneously hypertensive rat (SHR); settings: J. Dairy Sci. 78:1253-1257(1995); cited from earlier work

Sequence of ACE (P12821 30-1306, species assumed): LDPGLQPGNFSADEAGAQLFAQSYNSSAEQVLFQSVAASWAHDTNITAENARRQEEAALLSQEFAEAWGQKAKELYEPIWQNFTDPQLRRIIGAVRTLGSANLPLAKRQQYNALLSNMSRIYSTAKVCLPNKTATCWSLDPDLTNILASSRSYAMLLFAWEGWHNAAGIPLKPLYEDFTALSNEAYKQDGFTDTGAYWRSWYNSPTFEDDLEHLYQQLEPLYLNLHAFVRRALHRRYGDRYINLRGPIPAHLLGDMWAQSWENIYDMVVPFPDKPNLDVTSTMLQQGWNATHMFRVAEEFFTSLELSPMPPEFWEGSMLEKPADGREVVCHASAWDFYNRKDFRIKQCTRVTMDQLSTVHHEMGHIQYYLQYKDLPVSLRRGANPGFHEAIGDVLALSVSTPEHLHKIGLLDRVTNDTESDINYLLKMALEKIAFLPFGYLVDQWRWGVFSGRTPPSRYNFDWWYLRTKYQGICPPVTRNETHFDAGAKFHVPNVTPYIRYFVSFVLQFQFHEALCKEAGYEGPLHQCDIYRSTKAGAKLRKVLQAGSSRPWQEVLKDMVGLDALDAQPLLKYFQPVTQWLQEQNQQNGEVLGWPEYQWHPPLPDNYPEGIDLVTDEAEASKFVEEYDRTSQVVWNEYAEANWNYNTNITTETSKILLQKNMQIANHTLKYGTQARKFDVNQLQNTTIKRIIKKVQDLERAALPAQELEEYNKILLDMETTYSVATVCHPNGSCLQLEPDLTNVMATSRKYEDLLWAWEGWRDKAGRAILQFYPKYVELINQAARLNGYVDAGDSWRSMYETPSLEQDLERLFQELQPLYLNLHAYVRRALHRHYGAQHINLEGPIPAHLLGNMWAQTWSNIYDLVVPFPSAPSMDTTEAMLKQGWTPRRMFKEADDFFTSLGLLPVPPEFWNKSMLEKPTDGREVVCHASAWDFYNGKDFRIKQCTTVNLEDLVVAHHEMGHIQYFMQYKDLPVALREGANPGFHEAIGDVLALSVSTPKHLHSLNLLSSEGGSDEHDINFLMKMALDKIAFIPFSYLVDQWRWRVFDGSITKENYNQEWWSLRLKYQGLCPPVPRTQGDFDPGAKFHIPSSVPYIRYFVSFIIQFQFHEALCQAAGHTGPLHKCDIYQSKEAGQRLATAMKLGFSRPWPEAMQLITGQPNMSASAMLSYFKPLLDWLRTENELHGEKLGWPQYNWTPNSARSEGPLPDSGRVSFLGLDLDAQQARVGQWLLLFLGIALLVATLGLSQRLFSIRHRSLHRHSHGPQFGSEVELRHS

| Substance | ACE inhibitory activity per unit weight relative to VPP (ACE) | Hypotensive effect [1] |
| --- | --- | --- |
| Ile-Pro-Pro [IPP] | 1.7 times that of VPP | strong hypotensive effect |
| Val-Pro-Pro [VPP] | – | strong hypotensive effect |
